Source: US4363805A, “Aminodesoxy-1.4;3.6-dianhydrohexitol nitrates and pharmaceutical composition” (Firma Willmar Schwabe, priority 1980, dated 1982)

Assays:
[1] = test system: isolated guinea pig hearts; assay: Experiments on Langendorff hearts (coronary flowthrough, inotropism, frequency); conditions: Cavia porcellus, read-out: flowthrough, percentage change with regard to the initial value
Description: After reaching the stationary state in the 30th minute, the hearts were each perfused with 50 ml. tyrode solution with a content of test substance of, in each case, 25 μg./ml. Each test substance was tested on 3-6 hearts.
In each case, there was measured the inotropism, the flowthrough and the frequency, whereby the values given in Table I are average values of the percentage changes in comparison with the initial values.

[2] = Acute toxicity, intravenous, mice; assay type: in vivo; conditions: mouse, in vivo; intravenous, within 24 hours; read-out: Evaluated LD50-range
female NMRI-albino mice = assay: Acute toxicity, intravenous, mice; assay type: in vivo; conditions: within 24 hours
narcotised guinea pigs = assay: Blood pressure experiments on guinea pigs, i.v.; assay type: in vivo, guinea pig; conditions: for blood pressure before: before administration
mongrel cats = assay: Inotropic and heart-circulatory effectiveness on narcotised cats, intravenous; assay type: in vivo, cat; conditions: 6 animals
[3] = 0.25 mg/kg i.v., before administration

CN(CC=Cc1ccccc1)[C@H]1CO[C@H]2[C@@H]1OC[C@@H]2O[N+](=O)[O-] [Example 24, 5-(N-Cinnamyl-N-methylamino)-5-desoxy-1.4;3.6-dianhydro-L-iditol 2-nitrate]
activation at 25 µg/mL [1]: 200%

O=[N+]([O-])O[C@H]1CO[C@H]2[C@@H]1OC[C@@H]2NC12CC3CC(CC(C3)C1)C2 [11 b]
activation at 25 µg/mL [1]: 145%

CC(=O)N[C@H]1CO[C@H]2[C@@H]1OC[C@@H]2O[N+](=O)[O-] [Example 6, 5-Acetylamino-5-desoxy-1.4;3.6-dianhydro-L-iditol 2-nitrate]
LD50 at 24 h [2]: > 200 mg/kg | Frequency of death (female NMRI-albino mice; 200 mg/kg i.v.): 0/3 | blood pressure after (narcotised guinea pigs; 0.25 mg/kg i.v.): 63.75 ± 7.32 mm.Hg | blood pressure Δ (narcotised guinea pigs; 0.25 mg/kg i.v.): -7.00 mm.Hg | blood pressure before (narcotised guinea pigs; 0.25 mg/kg i.v.): 70.75 ± 6.36 mm.Hg | blood pressure after (narcotised guinea pigs; 1.00 mg/kg i.v.): 55.75 ± 7.94 mm.Hg | blood pressure Δ (narcotised guinea pigs; 1.00 mg/kg i.v.): -14.50 mm.Hg | blood pressure after (narcotised guinea pigs; 2.50 mg/kg i.v.): 47.75 ± 5.88 mm.Hg | blood pressure Δ (narcotised guinea pigs; 2.50 mg/kg i.v.): -17.75 mm.Hg

O=[N+]([O-])O[C@H]1CO[C@H]2[C@@H]1OC[C@@H]2NCCc1ccccc1 [Example 27, 5-(2-Phenylethylamino)-5-desoxy-1.4;3.6-dianhydro-L-iditol 2-nitrate]
activation at 25 µg/mL [1]: 67.2%

N#Cc1ccccc1OCC(O)CN[C@H]1CO[C@H]2[C@@H]1OC[C@@H]2O[N+](=O)[O-] (stereo partly drawn) [Example 50, 5-[2-Hydroxy-3-(2-cyanophenoxy)-propylamino]-5-desoxy-1.4;3.6-dianhydro-L-iditol 2-nitrate]
blood pressure before (mongrel cats; [3]): 121.0 mm.Hg | dp/dt (inotropism) before (mongrel cats; [3]): 6533 mm.Hg/sec | heart frequency before (mongrel cats; [3]): 190.7 min⁻¹ | blood pressure WD (mongrel cats; 0.25 mg/kg i.v.): 8.5 min | blood pressure after (mongrel cats; 0.25 mg/kg i.v.): 108.3 mm.Hg | blood pressure Δ (mongrel cats; 0.25 mg/kg i.v.): -12.7 mm.Hg | dp/dt (inotropism) after (mongrel cats; 0.25 mg/kg i.v.): 6033 mm.Hg/sec | dp/dt (inotropism) Δ (mongrel cats; 0.25 mg/kg i.v.): -500 mm.Hg/sec | dp/dt WD (mongrel cats; 0.25 mg/kg i.v.): 8.2 min | heart frequency after (mongrel cats; 0.25 mg/kg i.v.): 195.3 min⁻¹ | heart frequency Δ (mongrel cats; 0.25 mg/kg i.v.): +4.6 min^-1 | blood pressure WD (mongrel cats; 0.50 mg/kg i.v.): 9.8 min | blood pressure after (mongrel cats; 0.50 mg/kg i.v.): 102.2 mm.Hg | blood pressure Δ (mongrel cats; 0.50 mg/kg i.v.): -18.0 mm.Hg | dp/dt (inotropism) after (mongrel cats; 0.50 mg/kg i.v.): 5133 mm.Hg/sec | dp/dt (inotropism) Δ (mongrel cats; 0.50 mg/kg i.v.): -1267 mm.Hg/sec | dp/dt WD (mongrel cats; 0.50 mg/kg i.v.): 8.2 min | heart frequency after (mongrel cats; 0.50 mg/kg i.v.): 195.3 min⁻¹ | heart frequency Δ (mongrel cats; 0.50 mg/kg i.v.): +3.3 min^-1 | blood pressure WD (mongrel cats; 1.00 mg/kg i.v.): 14.8 min | blood pressure after (mongrel cats; 1.00 mg/kg i.v.): 94.2 mm.Hg | blood pressure Δ (mongrel cats; 1.00 mg/kg i.v.): -27.8 mm.Hg | dp/dt (inotropism) after (mongrel cats; 1.00 mg/kg i.v.): 4200 mm.Hg/sec | dp/dt (inotropism) Δ (mongrel cats; 1.00 mg/kg i.v.): -2067 mm.Hg/sec | dp/dt WD (mongrel cats; 1.00 mg/kg i.v.): 14.8 min | heart frequency after (mongrel cats; 1.00 mg/kg i.v.): 191.7 min⁻¹ | heart frequency Δ (mongrel cats; 1.00 mg/kg i.v.): 0 min⁻¹ | blood pressure WD (mongrel cats; 2.50 mg/kg i.v.): > 10 min | blood pressure after (mongrel cats; 2.50 mg/kg i.v.): 77.5 mm.Hg | blood pressure Δ (mongrel cats; 2.50 mg/kg i.v.): -45.8 mm.Hg | dp/dt (inotropism) after (mongrel cats; 2.50 mg/kg i.v.): 2733 mm.Hg/sec | dp/dt (inotropism) Δ (mongrel cats; 2.50 mg/kg i.v.): -3584 mm.Hg/sec | dp/dt WD (mongrel cats; 2.50 mg/kg i.v.): > 10 min | heart frequency after (mongrel cats; 2.50 mg/kg i.v.): 178.7 min⁻¹ | heart frequency Δ (mongrel cats; 2.50 mg/kg i.v.): -10.3 min⁻¹ | LD50 at 24 h [2]: 100 to 200 mg/kg | Frequency of death (female NMRI-albino mice; 100 mg/kg i.v.): 0/3 | Frequency of death (female NMRI-albino mice; 200 mg/kg i.v.): 4/6 | blood pressure after (narcotised guinea pigs; 0.25 mg/kg i.v.): 39.25 ± 6.97 mm.Hg | blood pressure Δ (narcotised guinea pigs; 0.25 mg/kg i.v.): -16.25 mm.Hg | blood pressure before (narcotised guinea pigs; 0.25 mg/kg i.v.): 55.50 ± 7.35 mm.Hg | blood pressure after (narcotised guinea pigs; 1.00 mg/kg i.v.): 31.00 ± 3.94 mm.Hg | blood pressure Δ (narcotised guinea pigs; 1.00 mg/kg i.v.): -21.50 mm.Hg | blood pressure after (narcotised guinea pigs; 2.50 mg/kg i.v.): 22.75 ± 1.80 mm.Hg | blood pressure Δ (narcotised guinea pigs; 2.50 mg/kg i.v.): -27.75 mm.Hg
